Test results: ChEMBL document CHEMBL1201861, “Genomics of Drug Sensitity in Cancer screening data, Wellcome Trust Sanger Institute”
Values joined by “and” are separate entries in the source; they are usually repeats but may differ in a detail not shown here. Equal values may be shown once.

Assays:
Assay in all cases: cells
HuCCT-1 = type: functional, cell-based, Homo sapiens, HuCCT1;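 note: growth inhibition of HuCCT-1 cells, read out by a cell viability assay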
Description: SANGER: Inhibition of human HuCCT1 cell growth in a cell viability assay.

NCI-H1755 = type: functional, cell-based, Homo sapiens;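 note: cell viability readout used to measure growth inhibition of NCI-H1755 cells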
Description: SANGER: Inhibition of human NCI-H1755 cell growth in a cell viability assay.

ABC-1 = type: functional, cell-based, Homo sapiens;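 note: growth inhibition of human ABC-1 cells, read out by a cell viability assay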
Description: SANGER: Inhibition of human ABC-1 cell growth in a cell viability assay.

CTB-1 = type: functional, cell-based; conditions: Homo sapiens
Description: SANGER: Inhibition of human CTB-1 cell growth in a cell viability assay.

PSN1 = type: functional, cell-based, Homo sapiens;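 note: suppression of growth of human PSN1 cells, read out by a cell viability assay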
Description: SANGER: Inhibition of human PSN1 cell growth in a cell viability assay.

A498 = type: functional, cell-based, Homo sapiens;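 note: growth inhibition of human A498 cells, read out with a cell viability assay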
Description: SANGER: Inhibition of human A498 cell growth in a cell viability assay.

COR-L88 = type: functional, cell-based; conditions: Homo sapiens;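 note: growth inhibition of COR-L88 cells, read out with a cell viability assay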
Description: SANGER: Inhibition of human COR-L88 cell growth in a cell viability assay.

CaR-1 = type: functional, cell-based, Homo sapiens;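 note: growth inhibition of human CaR-1 cancer cells, read out with a cell viability assay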
Description: SANGER: Inhibition of human CaR-1 cell growth in a cell viability assay.

SHP77 = type: functional, cell-based, Homo sapiens, SHP-77;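 note: growth inhibition of human SHP-77 cells measured by a cell viability assay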
Description: SANGER: Inhibition of human SHP-77 cell growth in a cell viability assay.

KNS-81-FD = type: functional, cell-based, Homo sapiens;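 note: growth inhibition of KNS-81-FD cells, read out with a cell viability assay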
Description: SANGER: Inhibition of human KNS-81-FD cell growth in a cell viability assay.

KYSE-140 = type: functional, cell-based, Homo sapiens;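 note: cell viability assay measuring growth inhibition in human KYSE-140 cells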
Description: SANGER: Inhibition of human KYSE-140 cell growth in a cell viability assay.

WM-115 = type: functional, cell-based, Homo sapiens
Description: SANGER: Inhibition of human WM-115 cell growth in a cell viability assay.

NB12 = type: functional, cell-based, Homo sapiens;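 note: growth inhibition of human NB12 cells, read out by a cell viability assay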
Description: SANGER: Inhibition of human NB12 cell growth in a cell viability assay.

CAL-33 = type: functional, cell-based, Homo sapiens;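 note: growth inhibition of CAL-33 cells, read out with a cell viability assay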
Description: SANGER: Inhibition of human CAL-33 cell growth in a cell viability assay.

MDA-MB-415 = type: functional, cell-based; conditions: Homo sapiens
NB17 = type: functional, cell-based; conditions: Homo sapiens;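 note: growth inhibition of NB17 cells, read out with a cell viability assay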
Description: SANGER: Inhibition of human NB17 cell growth in a cell viability assay.

NCI-H2342 = type: functional, cell-based; conditions: Homo sapiens;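 note: growth inhibition of the cancer cell line, determined with a cell viability assay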
Description: SANGER: Inhibition of human NCI-H2342 cell growth in a cell viability assay.

Huh-7 = type: functional, cell-based, Homo sapiens;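 note: HuH-7 cell growth inhibition, read out with a cell viability assay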
Description: SANGER: Inhibition of human HuH-7 cell growth in a cell viability assay.

HCC1806 = type: functional, cell-based, Homo sapiens;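 note: growth inhibition of the cancer cell line, determined with a cell viability assay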
Description: SANGER: Inhibition of human HCC1806 cell growth in a cell viability assay.

KGN = type: functional, cell-based, Homo sapiens;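 note: growth inhibition of KGN cells, read out with a cell viability assay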
Description: SANGER: Inhibition of human KGN cell growth in a cell viability assay.

A101D = type: functional, cell-based, Homo sapiens;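 note: growth inhibition of the cell line, measured with a viability assay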
Description: SANGER: Inhibition of human A101D cell growth in a cell viability assay.

HT-1376 = type: functional, cell-based, Homo sapiens
Description: SANGER: Inhibition of human HT-1376 cell growth in a cell viability assay.

KM12 = type: functional, cell-based, Homo sapiens;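 note: KM12 cell growth inhibition, read out with a cell viability assay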
Description: SANGER: Inhibition of human KM12 cell growth in a cell viability assay.

NCI-H650 = type: functional, cell-based, Homo sapiens;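 note: growth inhibition of NCI-H650 cells, read out by a viability assay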
Description: SANGER: Inhibition of human NCI-H650 cell growth in a cell viability assay.

LU-99A = type: functional, cell-based, Homo sapiens;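 note: growth inhibition of LU-99A cells, read out with a cell viability assay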
Description: SANGER: Inhibition of human LU-99A cell growth in a cell viability assay.

MC116 = type: functional, cell-based; conditions: Homo sapiens;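 note: growth inhibition of MC116 cells, read out with a cell viability assay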
Description: SANGER: Inhibition of human MC116 cell growth in a cell viability assay.

OAW-42 = type: functional, cell-based, Homo sapiens;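 note: growth inhibition of OAW-42 cells, read out with a cell viability assay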
Description: SANGER: Inhibition of human OAW-42 cell growth in a cell viability assay.

NCI-H1693 = type: functional, cell-based, Homo sapiens;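 note: growth inhibition of the human cell line, read out with a cell viability assay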
Description: SANGER: Inhibition of human NCI-H1693 cell growth in a cell viability assay.

SBC-5 = type: functional, cell-based, Homo sapiens;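 note: cell viability assay read-out, IC50 is the concentration that inhibits growth of the cells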
Description: SANGER: Inhibition of human SBC-5 cell growth in a cell viability assay.

NCI-H23 = type: functional, cell-based, Homo sapiens
Description: SANGER: Inhibition of human NCI-H23 cell growth in a cell viability assay.

KE-37 = type: functional, cell-based; conditions: Homo sapiens;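 note: growth inhibition of KE-37 cells, read out with a cell viability assay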
Description: SANGER: Inhibition of human KE-37 cell growth in a cell viability assay.

HCC 2998 = type: functional, cell-based, Homo sapiens;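 note: growth inhibition of human HCC2998 cells, measured with a cell viability read-out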
Description: SANGER: Inhibition of human HCC2998 cell growth in a cell viability assay.

COLO-668 = type: functional, cell-based, Homo sapiens
Description: SANGER: Inhibition of human COLO-668 cell growth in a cell viability assay.

ChaGo-K-1 = type: functional, cell-based; conditions: Homo sapiens;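 note: growth inhibition of ChaGo-K-1 cells, read out with a cell viability assay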
Description: SANGER: Inhibition of human ChaGo-K-1 cell growth in a cell viability assay.

NB69 = type: functional, cell-based, Homo sapiens;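 note: growth inhibition of NB69 cells, determined by a cell viability assay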
Description: SANGER: Inhibition of human NB69 cell growth in a cell viability assay.

C8166 = type: functional, cell-based; conditions: Homo sapiens;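 note: growth inhibition of human C8166 cells measured by a cell viability assay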
Description: SANGER: Inhibition of human C8166 cell growth in a cell viability assay.

A673 = type: functional, cell-based, Homo sapiens;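 note: growth inhibition of human A673 cells, read out through a cell viability assay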
Description: SANGER: Inhibition of human A673 cell growth in a cell viability assay.

OAW-28 = type: functional, cell-based, Homo sapiens;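 note: growth inhibition of OAW-28 cells, read out with a cell viability assay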
Description: SANGER: Inhibition of human OAW-28 cell growth in a cell viability assay.

SJSA-1 = type: functional, cell-based, Homo sapiens;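 note: growth inhibition of human SJSA-1 cells, read out through a cell viability measurement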
Description: SANGER: Inhibition of human SJSA-1 cell growth in a cell viability assay.

EGI-1 = type: functional, cell-based, Homo sapiens;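 note: cell viability readout used to gauge growth inhibition of EGI-1 cells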
Description: SANGER: Inhibition of human EGI-1 cell growth in a cell viability assay.

SCC-15 = type: functional, cell-based, Homo sapiens;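 note: growth inhibition of SCC-15 cells, read out with a cell viability assay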
Description: SANGER: Inhibition of human SCC-15 cell growth in a cell viability assay.

NCI-H1563 = type: functional, cell-based, Homo sapiens;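 note: growth inhibition of human NCI-H1563 cells, read out with a cell viability assay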
Description: SANGER: Inhibition of human NCI-H1563 cell growth in a cell viability assay.

HT1197 = type: functional, cell-based, Homo sapiens, HT-1197
Description: SANGER: Inhibition of human HT-1197 cell growth in a cell viability assay.

CAL-72 = type: functional, cell-based, Homo sapiens;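 note: cell viability assay measuring inhibition of proliferation in the CAL-72 cell line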
Description: SANGER: Inhibition of human CAL-72 cell growth in a cell viability assay.

G-401 = type: functional, cell-based, Homo sapiens
Description: SANGER: Inhibition of human G-401 cell growth in a cell viability assay.

NCI-H1993 = type: functional, cell-based, Homo sapiens;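 note: growth inhibition of the cancer cell line, assessed with a cell viability assay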
Description: SANGER: Inhibition of human NCI-H1993 cell growth in a cell viability assay.

BV-173 = type: functional, cell-based; conditions: Homo sapiens
Description: SANGER: Inhibition of human BV-173 cell growth in a cell viability assay.

CTV-1 = type: functional, cell-based; conditions: Homo sapiens;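 note: growth inhibition of the cell line, read out with a cell viability assay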
Description: SANGER: Inhibition of human CTV-1 cell growth in a cell viability assay.

8505C = type: functional, cell-based, Homo sapiens
Description: SANGER: Inhibition of human 8505C cell growth in a cell viability assay.

LCLC-103H cell line = type: functional, cell-based, Homo sapiens
Description: SANGER: Inhibition of human LCLC-103H cell growth in a cell viability assay.

A 172 = type: functional, cell-based, Homo sapiens; conditions: a 172;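 note: growth inhibition of A172 cells, measured with a cell viability readout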
Description: SANGER: Inhibition of human A172 cell growth in a cell viability assay.

Question: Which IC50 (HuCCT-1; Homo sapiens, HuCCT-1) does the source give for `COc1cc(F)c(F)c(Nc2ccc(I)cc2F)c1NS(=O)(=O)C1(CC(O)CO)CC1` (configuration not stated) here?
Answer: 0.905 µM

Question: And the IC50 (NCI-H1755; Homo sapiens, NCI-H1755)?
Answer: > 5 µM

Question: What about the IC50 (ABC-1; Homo sapiens, ABC-1) of the same compound?
Answer: > 5 µM

Question: And the IC50 (CTB-1)?
Answer: > 5 µM

Question: And the IC50 (PSN1; Homo sapiens, PSN1)?
Answer: 0.198 µM

Question: What about the IC50 (A498; Homo sapiens, A498) of the same compound?
Answer: > 5 µM

Question: What about the IC50 (COR-L88) of the same compound?
Answer: > 5 µM

Question: And the IC50 (CaR-1; Homo sapiens, CaR-1)?
Answer: > 5 µM

Question: And the IC50 (SHP77; Homo sapiens, SHP77)?
Answer: > 5 µM

Question: And the IC50 (KNS-81-FD; Homo sapiens, KNS-81-FD)?
Answer: 2.41 µM

Question: And the IC50 (KYSE-140; Homo sapiens, KYSE-140)?
Answer: 2.9 µM

Question: And the IC50 (WM-115; Homo sapiens, WM-115)?
Answer: 0.421 µM

Question: And the IC50 (NB12; Homo sapiens, NB12)?
Answer: > 5 µM

Question: And the IC50 (CAL-33; Homo sapiens, CAL-33)?
Answer: 1.56 µM

Question: What about the IC50 (MDA-MB-415) of the same compound?
Answer: > 5 µM

Question: And the IC50 (NB17)?
Answer: > 5 µM

Question: And the IC50 (NCI-H2342)?
Answer: > 5 µM

Question: And the IC50 (Huh-7; Homo sapiens, Huh-7)?
Answer: 1.47 µM

Question: What about the IC50 (HCC1806; Homo sapiens, HCC1806) of the same compound?
Answer: > 5 µM

Question: And the IC50 (KGN; Homo sapiens, KGN)?
Answer: 2.8 µM

Question: And the IC50 (A101D; Homo sapiens, A101D)?
Answer: 0.0512 µM

Question: What about the IC50 (HT-1376; Homo sapiens, HT-1376) of the same compound?
Answer: > 5 µM

Question: What about the IC50 (KM12; Homo sapiens, KM12) of the same compound?
Answer: > 5 µM

Question: What about the IC50 (NCI-H650; Homo sapiens, NCI-H650) of the same compound?
Answer: > 5 µM

Question: What about the IC50 (LU-99A; Homo sapiens, LU-99A) of the same compound?
Answer: 3.96 µM

Question: What about the IC50 (MC116) of the same compound?
Answer: > 5 µM

Question: And the IC50 (OAW-42; Homo sapiens, OAW-42)?
Answer: > 5 µM

Question: What about the IC50 (NCI-H1693; Homo sapiens, NCI-H1693) of the same compound?
Answer: > 5 µM

Question: And the IC50 (SBC-5; Homo sapiens, SBC-5)?
Answer: > 5 µM

Question: And the IC50 (NCI-H23; Homo sapiens, NCI-H23)?
Answer: > 5 µM

Question: What about the IC50 (KE-37) of the same compound?
Answer: > 5 µM

Question: And the IC50 (HCC 2998; Homo sapiens, HCC 2998)?
Answer: 0.0869 µM

Question: And the IC50 (COLO-668; Homo sapiens, COLO-668)?
Answer: > 5 µM

Question: And the IC50 (ChaGo-K-1)?
Answer: > 5 µM

Question: What about the IC50 (NB69; Homo sapiens, NB69) of the same compound?
Answer: 0.557 µM

Question: And the IC50 (C8166)?
Answer: > 5 µM

Question: What about the IC50 (A673; Homo sapiens, A673) of the same compound?
Answer: > 5 µM

Question: And the IC50 (OAW-28; Homo sapiens, OAW-28)?
Answer: > 5 µM

Question: And the IC50 (SJSA-1; Homo sapiens, SJSA-1)?
Answer: 0.158 µM

Question: What about the IC50 (EGI-1; Homo sapiens, EGI-1) of the same compound?
Answer: 1.31 µM

Question: What about the IC50 (SCC-15; Homo sapiens, SCC-15) of the same compound?
Answer: > 5 µM

Question: What about the IC50 (NCI-H1563; Homo sapiens, NCI-H1563) of the same compound?
Answer: 4.47 µM

Question: And the IC50 (HT1197; Homo sapiens, HT1197)?
Answer: > 5 µM

Question: And the IC50 (CAL-72; Homo sapiens, CAL-72)?
Answer: > 5 µM

Question: And the IC50 (G-401; Homo sapiens, G-401)?
Answer: 1.97 µM

Question: And the IC50 (NCI-H1993; Homo sapiens, NCI-H1993)?
Answer: > 5 µM

Question: And the IC50 (BV-173)?
Answer: 2.38 µM

Question: And the IC50 (CTV-1)?
Answer: 4.96 µM

Question: What about the IC50 (8505C; Homo sapiens, 8505C) of the same compound?
Answer: 2.58 µM

Question: What about the IC50 (LCLC-103H cell line; Homo sapiens, LCLC-103H) of the same compound?
Answer: > 5 µM

Question: `Cc1cc([C@@H](C)Nc2ccccc2C(=O)O)c2nc(N3CCOCC3)cc(=O)n2c1` [AZD-6482] was tested. Which IC50 (HuCCT-1; hucct1) did it give?
Answer: > 5.12 µM and 1.24 µM

Question: What about the IC50 (A 172) of the same compound?
Answer: > 5.12 µM

Question: And the IC50 (NCI-H1755; Homo sapiens, NCI-H1755)?
Answer: 3.27 µM

Question: What about the IC50 (NCI-H1755; nci-h1755) of the same compound?
Answer: 3.31 µM

Question: What about the IC50 (ABC-1; abc-1) of the same compound?
Answer: > 5.12 µM

Question: And the IC50 (CTB-1)?
Answer: > 5.12 µM

Question: What about the IC50 (PSN1; psn1) of the same compound?
Answer: > 5.12 µM

Question: And the IC50 (A498; a498)?
Answer: 0.118 µM and 0.459 µM

Question: And the IC50 (COR-L88)?
Answer: > 5.12 µM

Question: What about the IC50 (CaR-1; car-1) of the same compound?
Answer: > 5.12 µM

Question: And the IC50 (SHP77; shp-77)?
Answer: > 5.12 µM

Question: And the IC50 (KNS-81-FD; kns-81-fd)?
Answer: > 5.12 µM

Question: What about the IC50 (KYSE-140; kyse-140) of the same compound?
Answer: > 5.12 µM

Question: What about the IC50 (WM-115; wm-115) of the same compound?
Answer: > 5.12 µM

Question: What about the IC50 (NB12; nb12) of the same compound?
Answer: 1.55 µM and > 5.12 µM

Question: And the IC50 (CAL-33; Homo sapiens, CAL-33)?
Answer: 1.49 µM

Question: And the IC50 (CAL-33; cal-33)?
Answer: 2.55 µM

Question: What about the IC50 (NB17) of the same compound?
Answer: > 5.12 µM

Question: What about the IC50 (NCI-H2342) of the same compound?
Answer: 0.843 µM

Question: What about the IC50 (Huh-7; Homo sapiens, Huh-7) of the same compound?
Answer: > 5.12 µM

Question: And the IC50 (Huh-7; huh-7)?
Answer: > 5.12 µM

Question: And the IC50 (HCC1806; hcc1806)?
Answer: > 5.12 µM

Question: What about the IC50 (KGN; kgn) of the same compound?
Answer: 4.32 µM and > 5.12 µM

Question: And the IC50 (A101D; a101d)?
Answer: 3.21 µM and > 5.12 µM

Question: And the IC50 (HT-1376; ht-1376)?
Answer: > 5.12 µM

Question: And the IC50 (KM12; Homo sapiens, KM12)?
Answer: > 5.12 µM

Question: And the IC50 (KM12; km12)?
Answer: > 5.12 µM

Question: And the IC50 (NCI-H650; nci-h650)?
Answer: 1.3 µM and > 5.12 µM

Question: And the IC50 (LU-99A; lu-99a)?
Answer: > 5.12 µM

Question: And the IC50 (MC116)?
Answer: 1.46 µM

Question: What about the IC50 (OAW-42; oaw-42) of the same compound?
Answer: > 5.12 µM

Question: What about the IC50 (NCI-H1693; nci-h1693) of the same compound?
Answer: > 5.12 µM

Question: What about the IC50 (SBC-5; Homo sapiens, SBC-5) of the same compound?
Answer: > 5.12 µM

Question: And the IC50 (SBC-5; sbc-5)?
Answer: > 5.12 µM

Question: What about the IC50 (NCI-H23; nci-h23) of the same compound?
Answer: > 5.12 µM

Question: And the IC50 (KE-37)?
Answer: > 5.12 µM

Question: And the IC50 (HCC 2998; hcc 2998)?
Answer: > 5.12 µM

Question: And the IC50 (COLO-668; colo-668)?
Answer: > 5.12 µM

Question: And the IC50 (ChaGo-K-1)?
Answer: > 5.12 µM

Question: What about the IC50 (NB69; Homo sapiens, NB69) of the same compound?
Answer: > 5.12 µM

Question: What about the IC50 (NB69; nb69) of the same compound?
Answer: > 5.12 µM

Question: And the IC50 (C8166)?
Answer: > 5.12 µM

Question: What about the IC50 (A673; Homo sapiens, A673) of the same compound?
Answer: > 5.12 µM

Question: And the IC50 (A673; a673)?
Answer: > 5.12 µM

Question: What about the IC50 (OAW-28; Homo sapiens, OAW-28) of the same compound?
Answer: > 5.12 µM

Question: And the IC50 (OAW-28; oaw-28)?
Answer: > 5.12 µM

Question: What about the IC50 (SJSA-1; Homo sapiens, SJSA-1) of the same compound?
Answer: > 5.12 µM

Question: What about the IC50 (SJSA-1; sjsa-1) of the same compound?
Answer: > 5.12 µM

Question: And the IC50 (EGI-1; egi-1)?
Answer: > 5.12 µM

Question: What about the IC50 (SCC-15; scc-15) of the same compound?
Answer: > 5.12 µM

Question: What about the IC50 (NCI-H1563; Homo sapiens, NCI-H1563) of the same compound?
Answer: > 5.12 µM

Question: What about the IC50 (NCI-H1563; nci-h1563) of the same compound?
Answer: > 5.12 µM

Question: And the IC50 (HT1197; ht-1197)?
Answer: > 5.12 µM

Question: And the IC50 (CAL-72; Homo sapiens, CAL-72)?
Answer: > 5.12 µM

Question: What about the IC50 (CAL-72; cal-72) of the same compound?
Answer: > 5.12 µM

Question: What about the IC50 (G-401; g-401) of the same compound?
Answer: 4.07 µM and > 5.12 µM

Question: What about the IC50 (NCI-H1993; nci-h1993) of the same compound?
Answer: > 5.12 µM

Question: What about the IC50 (BV-173) of the same compound?
Answer: > 5.12 µM

Question: And the IC50 (CTV-1)?
Answer: > 5.12 µM

Question: What about the IC50 (8505C; 8505c) of the same compound?
Answer: > 5.12 µM

Question: What about the IC50 (LCLC-103H cell line; Homo sapiens, LCLC-103H) of the same compound?
Answer: > 5.12 µM

Question: And the IC50 (LCLC-103H cell line; lclc-103h)?
Answer: > 5.12 µM
